Measured values published in US11572402B2, “Method for promoting diversification of antibody variable region” (Chiome Bioscience Inc., priority 2017, dated 2023).

System: BMAA4-2 cell line
Experiment: Sequence change analysis of antibody variable regions according to NGS (NUS, SBL)
Assay type: cell-based, chicken
Conditions: BMAA4-2 cells, versus negative control sample
Description: A frozen stock of the BMAA4-2 cell line (3.0×10^6 cells) was awaken with 10 mL of CS(−) medium, using a 25 cm^2 Flask, and the cells were then cultured in a CO2 incubator (39.5° C., 5% CO2). On the following day, 2 mL each of a CS(−) medium, to which each drug had been added, was added into each well of a 12-well dish (Nunc, 150628), and the cells were then seeded thereon to a cell density of 6.0×10^4 cells/mL (wherein the cell concentration and the survival rate were measured using CASY cell counter). After individual samples had been cultured for 2 days, the samples were subcultured under the same conditions to result in a cell density of 1.0×10^4 cells/mL. After completion of the culture for 3 days, individual samples were subcultured in a 25 cm^2 Flask to result in a cell density of 6.0×10^4 cells/mL with respect to 10 mL of the medium under the same conditions. After completion of the culture for 2 days (Day 7 of the culture), individual samples (in each amount of 2.0×10^6 cells) were recovered in a 1.5-mL tube, and thereafter, a supernatant was removed by centrifugation at 1,000×g for 5 min. The residue was re-suspended in 1 mL of D-PBS(−) (Nacalai Tesque, 14249-24), and a supernatant was then removed by centrifugation at 1,000×g for 5 min. The residue was preserved at −80° C. Moreover, individual samples from the remaining cells were subcultured in a 12-well dish to result in a cell density of 6.0×10^4 cells/mL with respect to 2 mL of the medium under the same conditions. After completion of the culture for 2 days, individual samples were subcultured under the same conditions to result in a cell density of 1.0×10^4 cells/mL. After completion of the culture for 3 days, individual samples were subcultured in a 25 cm^2 Flask to result in a cell density of 6.0×10^4 cells/mL with respect to 10 mL of the medium under the same conditions. After completion of the culture for 2 days (Day 14 of the culture), individual samples (in each amount of 2.0×10^6 cells) were recovered in a 1.5-mL tube, and thereafter, a supernatant was removed by centrifugation at 1,000×g for 5 min. The residue was re-suspended in 1 mL of D-PBS(−), and a supernatant was then removed by centrifugation at 1,000×g for 5 min. The residue was preserved at −80° C.
A frozen stock of the BMAA4-2 cell line (3.0×10^6 cells) was awaken with 10 mL of CS(−) medium, using a 25 cm^2 Flask, and the cells were then cultured in a CO2 incubator (39.5° C., 5% CO2). On the following day, 1 mL each of a CS(−) medium, to which each drug had been added, was added into each well of a 24-well dish, and the cells were then seeded thereon to a cell density of 3.0×10^5 cells/mL (wherein the cell concentration and the survival rate were measured using CASY cell counter). […]

Compound: Cc1nc(NC(=O)N2CCC[C@H]2C(N)=O)sc1-c1csc(C(C)(C)C)n1 [A66]
- NUS (number of unique sequences), antibody heavy chain variable region amino acid sequences (heavy chain): higher values than the negative control sample
- SBL (sum of branch length), antibody heavy chain variable region amino acid sequences (heavy chain): higher values than the negative control sample
- NUS (number of unique sequences), antibody light chain variable region amino acid sequences (light chain): higher values than the negative control sample
- SBL (sum of branch length), antibody light chain variable region amino acid sequences (light chain): higher values than the negative control sample
